In patent US11672817B2, “Maltosyl-Isomaltooligosaccharides” (ISOThrive Inc., priority 2016, dated 2023):
No end group written: not given here.

How the values were obtained:
[1] = test system: Weissella viridescens NRRL B-1951; assay: W. viridescens culture absorbance (growth) with nisin; format: cell-based; set-up: key to Corrected ABS 610rs: A600 minus background absorbance taken just after inoculation; conditions: for 91516 ABS 610f: final absorbance, uncorrected
Method: Purified nisin A and Z are commercially available and were acquired from Handary S. A. (Brussels Belgium). Certificates of analysis for each lot indicated purities of 95.2 and 99.6% for nisin A and Z, respectively.
100 g De-Man, Rogosa and Sharpe (MRS) media was prepared in a 500 mL Erlenmeyer to contain 5.5% solids in deionized water (18.2 MS2, Hydro Service and Supplies, Gaithersburg, Md.). The media was autoclaved (121° C. 15 min), cooled, and inoculated with 1 mL (0.5 mL culture+0.5 mL glycerol, 40%; frozen at −78° C.) of Weissella viridescens NRRL B-1951 (test strain). The culture was incubated at 31° C. overnight (15 Hr).
The next day, stock solutions of either nisin A or Z were prepared in deionized water to contain 31.3 and 33.7 μg/g of each peptide.
(§1) 100 g MRS media was prepared to contain 5.5% solids. Two sets (one set each for nisin A and nisin Z) of eight Hach-type tubes (Kimble Chase 45066-16100) were prepared. Within each set, in order was added 5.00, 4.95, 4.90, 4.75, 4.50, 4.00, 3.50 and 3.00 g MRS media. The tubes were sealed and autoclaved.
(§2) To each tube was added, of the appropriate nisin stock, 0.00, 0.05, 0.10, 0.25, 0.50, 1.00, 1.50, and 2.00 g. Each tube was inoculated with 0.25 g of late-log W. viridescens NRRL B-1951 culture. The tubes were sealed and the absorbance at 600 nm was quickly measured (Hach DR900). The tubes were segregated by set and incubated at 31° C. overnight (15 Hr).
Each tube was thoroughly mixed to suspend settled cells and the absorbance was measured again at 600 nm. The final absorbance values for each sample were corrected for their respective background (taken just after inoculation, scattered light from added cells). The corrected absorption values were a measure of W. viridescens growth. The corrected values were plotted against nisin concentration and minimum inhibiting concentration approximated via regression.

[2] = test system: Weissella viridescens NRRL B-1951; assay: HPLC of culture supernatants: consumption of glucose and production of organic acids with nisin; format: cell-based; conditions: for acetic acid in the fermentation media: MRS media originally contained 7% acetate
Method: as §1, §2
Each tube was sampled (1.5 mL conical polypropylene centrifuge tubes) and centrifuged at 10 kRPM for 10 minutes to remove and suspended cells. The resulting supernatants were filtered (0.2 μm nylon), diluted to 0.5% solids, and analyzed by high pressure liquid chromatography (HPLC, Agilent 1100, refractive index detector and BioRad Ainex HPX-87H column) for consumption of glucose and production of organic acids. The following table illustrates the concentration of sugars such as glucose and production of organic acids during the incubation.
Note that the MRS media originally contained 7% acetate; therefore 7% should be subtracted from the values for acetate in the above table to ascertain the amount of acetate generated during the assay.

nisin A (ITSISLCTPGCKTGALMGCNMKTATCHCSIHVSK; not fully specified (residues 2, 5, 33, bridges); also: lantibiotic (thioether rings, dehydrated residues not placed); UniProt P13068 24-57, looked up) [Purified nisin A, commercially available, acquired from Handary S. A; purity 95.2%; bacteriocin peptide]
inhibition of bacterial growth [1]: can effectively inhibit
91516 ABS 610f ([1]; nisin A 0.33 μg/g (tube A2)): 1.568
91516 ABS 610f ([1]; nisin A 0.68 μg/g (tube A3)): 1.531
91516 ABS 610f ([1]; nisin A 1.38 μg/g (tube A4)): 1.334
91516 ABS 610f ([1]; nisin A 3.08 μg/g (tube A5)): 0.911
91516 ABS 610f ([1]; nisin A 5.97 μg/g (tube A6)): 0.536
91516 ABS 610f ([1]; nisin A 8.86 μg/g (tube A7)): 0.403
91516 ABS 610f ([1]; nisin A 11.87 μg/g (tube A8)): 0.361
Corrected ABS 610rs ([1]; nisin A 0.33 μg/g (tube A2)): 1.106
Corrected ABS 610rs ([1]; nisin A 0.68 μg/g (tube A3)): 1.063
Corrected ABS 610rs ([1]; nisin A 1.38 μg/g (tube A4)): 0.868
Corrected ABS 610rs ([1]; nisin A 3.08 μg/g (tube A5)): 0.473
Corrected ABS 610rs ([1]; nisin A 5.97 μg/g (tube A6)): 0.116
Corrected ABS 610rs ([1]; nisin A 8.86 μg/g (tube A7)): 0.001
Corrected ABS 610rs ([1]; nisin A 11.87 μg/g (tube A8)): 0.001
Maltotriose in the fermentation media ([2]; nisin A 0.33 μg/g (tube A2)): 0.312 %/brix
ethanol in the fermentation media ([2]; nisin A 0.33 μg/g (tube A2)): 0.068 %/brix
formic acid in the fermentation media ([2]; nisin A 0.33 μg/g (tube A2)): 0.263 %/brix
fructose in the fermentation media ([2]; nisin A 0.33 μg/g (tube A2)): 0.000 %/brix
glucose in the fermentation media ([2]; nisin A 0.33 μg/g (tube A2)): 23.122 %/brix
glycerol in the fermentation media ([2]; nisin A 0.33 μg/g (tube A2)): 0.292 %/brix
lactic acid in the fermentation media ([2]; nisin A 0.33 μg/g (tube A2)): 6.884 %/brix
maltose in the fermentation media ([2]; nisin A 0.33 μg/g (tube A2)): 0.581 %/brix
acetic acid in the fermentation media ([2]; nisin A 0.33 μg/g (tube A2)): 7.967 %/brix
Maltotriose in the fermentation media ([2]; nisin A 1.38 μg/g (tube A4)): 0.298 %/brix
ethanol in the fermentation media ([2]; nisin A 1.38 μg/g (tube A4)): 0.062 %/brix
formic acid in the fermentation media ([2]; nisin A 1.38 μg/g (tube A4)): 0.282 %/brix
fructose in the fermentation media ([2]; nisin A 1.38 μg/g (tube A4)): 0.000 %/brix
glucose in the fermentation media ([2]; nisin A 1.38 μg/g (tube A4)): 24.138 %/brix
glycerol in the fermentation media ([2]; nisin A 1.38 μg/g (tube A4)): 0.319 %/brix
lactic acid in the fermentation media ([2]; nisin A 1.38 μg/g (tube A4)): 5.496 %/brix
maltose in the fermentation media ([2]; nisin A 1.38 μg/g (tube A4)): 0.815 %/brix
acetic acid in the fermentation media ([2]; nisin A 1.38 μg/g (tube A4)): 8.219 %/brix
Maltotriose in the fermentation media ([2]; nisin A 3.08 μg/g (tube A5)): 0.276 %/brix
ethanol in the fermentation media ([2]; nisin A 3.08 μg/g (tube A5)): 0.094 %/brix
formic acid in the fermentation media ([2]; nisin A 3.08 μg/g (tube A5)): 0.407 %/brix
fructose in the fermentation media ([2]; nisin A 3.08 μg/g (tube A5)): 0.000 %/brix
glucose in the fermentation media ([2]; nisin A 3.08 μg/g (tube A5)): 24.698 %/brix
glycerol in the fermentation media ([2]; nisin A 3.08 μg/g (tube A5)): 0.350 %/brix
lactic acid in the fermentation media ([2]; nisin A 3.08 μg/g (tube A5)): 4.672 %/brix
maltose in the fermentation media ([2]; nisin A 3.08 μg/g (tube A5)): 0.598 %/brix
acetic acid in the fermentation media ([2]; nisin A 3.08 μg/g (tube A5)): 8.296 %/brix
Maltotriose in the fermentation media ([2]; nisin A 5.97 μg/g (tube A6)): 0.288 %/brix
ethanol in the fermentation media ([2]; nisin A 5.97 μg/g (tube A6)): 0.057 %/brix
formic acid in the fermentation media ([2]; nisin A 5.97 μg/g (tube A6)): 0.280 %/brix
fructose in the fermentation media ([2]; nisin A 5.97 μg/g (tube A6)): 0.000 %/brix
glucose in the fermentation media ([2]; nisin A 5.97 μg/g (tube A6)): 25.304 %/brix
glycerol in the fermentation media ([2]; nisin A 5.97 μg/g (tube A6)): 0.328 %/brix
lactic acid in the fermentation media ([2]; nisin A 5.97 μg/g (tube A6)): 2.707 %/brix
maltose in the fermentation media ([2]; nisin A 5.97 μg/g (tube A6)): 0.941 %/brix
acetic acid in the fermentation media ([2]; nisin A 5.97 μg/g (tube A6)): 8.143 %/brix
Maltotriose in the fermentation media ([2]; nisin A 8.86 μg/g (tube A7)): 0.419 %/brix
ethanol in the fermentation media ([2]; nisin A 8.86 μg/g (tube A7)): 0.055 %/brix
formic acid in the fermentation media ([2]; nisin A 8.86 μg/g (tube A7)): 0.234 %/brix
fructose in the fermentation media ([2]; nisin A 8.86 μg/g (tube A7)): 0.000 %/brix
glucose in the fermentation media ([2]; nisin A 8.86 μg/g (tube A7)): 25.444 %/brix
glycerol in the fermentation media ([2]; nisin A 8.86 μg/g (tube A7)): 0.299 %/brix
lactic acid in the fermentation media ([2]; nisin A 8.86 μg/g (tube A7)): 1.521 %/brix
maltose in the fermentation media ([2]; nisin A 8.86 μg/g (tube A7)): 0.775 %/brix
acetic acid in the fermentation media ([2]; nisin A 8.86 μg/g (tube A7)): 7.899 %/brix
Maltotriose in the fermentation media ([2]; nisin A 11.87 μg/g (tube A8)): 0.305 %/brix
ethanol in the fermentation media ([2]; nisin A 11.87 μg/g (tube A8)): 0.071 %/brix
formic acid in the fermentation media ([2]; nisin A 11.87 μg/g (tube A8)): 0.233 %/brix
fructose in the fermentation media ([2]; nisin A 11.87 μg/g (tube A8)): 0.000 %/brix
glucose in the fermentation media ([2]; nisin A 11.87 μg/g (tube A8)): 25.537 %/brix
glycerol in the fermentation media ([2]; nisin A 11.87 μg/g (tube A8)): 0.301 %/brix
lactic acid in the fermentation media ([2]; nisin A 11.87 μg/g (tube A8)): 1.579 %/brix
maltose in the fermentation media ([2]; nisin A 11.87 μg/g (tube A8)): 0.739 %/brix
acetic acid in the fermentation media ([2]; nisin A 11.87 μg/g (tube A8)): 8.091 %/brix
